{
  "source": "patent US6569860B2",
  "about": "“Alkoxycarbonylamino heteroaryl carboxylic acid derivatives as IP antagonists” (Roćhe Palo Alto LLC, priority 2001, dated 2003)",
  "data": [
    {"units": {"melting point": "°C"}, "values": [
      {"smiles": "O=C(Nc1cnccc1C(=O)O)OCc1cc2cc(-c3ccccc3)ccc2o1", "note": "[Example 3, 3-(5-Phenyl-benzofuran-2-ylmethoxycarbonylamino)-isonicotinic Acid]", "melting point": "235.7 to 238.9"},
      {"smiles": "O=C(Nc1cnc(-c2ccccc2)nc1C(=O)O)OCc1cc2cc(-c3ccccc3)ccc2o1", "note": "[Example 1, 2-Phenyl-5-(5-phenyl-benzofuran-2-ylmethoxycarbonylamino)-pyrimidine-4-carboxylic Acid]", "melting point": "184 to 185"},
      {"smiles": "O=C(Nc1nn(-c2ccccc2)cc1C(=O)O)OCc1cc2cc(-c3ccccc3)ccc2o1", "note": "[Example 2, 1-Phenyl-3-(5-phenyl-benzofuran-2-ylmethoxycarbonylamino)-1H-pyrazole-4-carboxylic Acid]", "melting point": "220.6 to 220.8"}
    ]}
  ]
}
